From patent publication US20160052926A1, “NOVEL PYRIMIDINE AND PYRIDINE COMPOUNDS AND USAGE THEREOF” (HUTCHISON MEDIPHARMA LIMITED, priority 2013, published 2016)

Assays:
[1] = target: Recombinant human FGFR1 (Homo sapiens, UniProt P11362); assay: Transcreener Kinase Assay of FGFR1; format: biochemical; conditions: read-out: FGFR1 (FP) IC50
[2] = target: FGFR3 kinase (Homo sapiens, UniProt P22607); assay: Z-Lyte Kinase Assay of FGFR3; format: biochemical
Outline: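 FRET peptide-cleavage format: 1 h kinase reaction at RT (25-30[…]), then 1 h protease development, then stop and dual-emission read (Ex400, Em445/520 nm). Working solutions: kinase 0.7 μg/ml, Tyr 4 peptide 4 μM, ATP 300 uM in 1.33× buffer; eight compound concentrations from 1 μM, 2% DMSO final.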

[3] = system: RT-112; assay: Cellular Proliferation Assay (Cell Counting Kit-8), RT-112; format: cell-based; conditions: Homo sapiens, RT-112 cells, 72 hours
Method: (§1) Cellular Proliferation Assay
(§2) • KG-1 (ATCC Accession No. CCL-246), • SNU-16 (ATCC Accession No. CRL-5974), • RT-112 (ECACC Accession No. 85061106)
(§3) • FGFR related cancer cell proliferation is measured in 96-well plates using Cell Counting Kit-8 (Dojindo CK04-13). • Seed 30000 cells/well of KG1, 5000 cells/well of SNU16, and 1000 cells/well of RT112 in a volume of 100 μL/well in growth media. • After 24 hours, dilute the compound to 10, 3.3, 1.1, 0.37, 0.12, 0.04, 0.013, 0.004 μM, keeping the DMSO concentration at 5%. • Add 10 μL of 8-point compound series to the wells of culturing cells. • Incubate at 37° C. and 5% CO2 for 72 hours • Add 10 μL/well of CCkit8 and incubate at 37° C. and 5% CO2 for an hour • Detect the optical density of each well at 450 nm on Labsystems Multiskan K3.
(§4) • ODcompound well represents the optical density of cells treated with compound. • ODcell well represents the optical density of cells without compounds treatment. (only 0.5% DMSO) • ODcontrol well represents the optical density of culture media background
(§5) The concentration of compound providing 50% of proliferation inhibition was calculated using Excel Fit.

[4] = target: Recombinant human FGFR2 (Homo sapiens, UniProt P21802); assay: Transcreener Kinase Assay of FGFR2; format: biochemical; conditions: read-out: FGFR2 (FP) IC50
[5] = system: SNU-16; assay: Cellular Proliferation Assay (Cell Counting Kit-8), SNU-16; format: cell-based; conditions: Homo sapiens, SNU-16 cells, 72 hours
Method: as §1, §2, §3, §4, §5

[6] = system: KG-1; assay: Cellular Proliferation Assay (Cell Counting Kit-8), KG-1; format: cell-based; conditions: Homo sapiens, KG1 cells, 72 hours
Method: as §1, §2, §3, §4, §5

Chain of Recombinant human FGFR2 (P21802 22-821): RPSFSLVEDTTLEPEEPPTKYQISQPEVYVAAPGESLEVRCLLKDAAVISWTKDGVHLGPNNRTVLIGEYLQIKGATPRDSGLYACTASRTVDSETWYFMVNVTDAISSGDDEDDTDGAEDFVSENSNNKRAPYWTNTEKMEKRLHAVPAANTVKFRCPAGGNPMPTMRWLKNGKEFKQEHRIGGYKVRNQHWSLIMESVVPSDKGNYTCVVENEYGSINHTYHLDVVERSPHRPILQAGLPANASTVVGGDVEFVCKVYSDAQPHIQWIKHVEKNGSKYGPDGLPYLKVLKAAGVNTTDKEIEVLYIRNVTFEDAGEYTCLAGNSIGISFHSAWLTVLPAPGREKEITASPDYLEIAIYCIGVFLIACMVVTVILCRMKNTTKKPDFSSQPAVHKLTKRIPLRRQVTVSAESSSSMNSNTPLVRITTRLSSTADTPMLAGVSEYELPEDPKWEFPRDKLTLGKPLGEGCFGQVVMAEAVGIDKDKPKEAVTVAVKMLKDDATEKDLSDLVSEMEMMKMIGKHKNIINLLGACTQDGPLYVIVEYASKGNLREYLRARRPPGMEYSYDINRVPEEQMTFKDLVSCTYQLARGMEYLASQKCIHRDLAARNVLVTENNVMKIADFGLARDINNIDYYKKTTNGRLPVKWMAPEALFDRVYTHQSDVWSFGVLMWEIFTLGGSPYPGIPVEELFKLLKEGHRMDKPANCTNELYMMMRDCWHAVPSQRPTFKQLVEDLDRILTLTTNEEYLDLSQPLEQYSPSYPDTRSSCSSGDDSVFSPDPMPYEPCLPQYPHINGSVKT
Chain of Recombinant human FGFR1 (P11362 22-822): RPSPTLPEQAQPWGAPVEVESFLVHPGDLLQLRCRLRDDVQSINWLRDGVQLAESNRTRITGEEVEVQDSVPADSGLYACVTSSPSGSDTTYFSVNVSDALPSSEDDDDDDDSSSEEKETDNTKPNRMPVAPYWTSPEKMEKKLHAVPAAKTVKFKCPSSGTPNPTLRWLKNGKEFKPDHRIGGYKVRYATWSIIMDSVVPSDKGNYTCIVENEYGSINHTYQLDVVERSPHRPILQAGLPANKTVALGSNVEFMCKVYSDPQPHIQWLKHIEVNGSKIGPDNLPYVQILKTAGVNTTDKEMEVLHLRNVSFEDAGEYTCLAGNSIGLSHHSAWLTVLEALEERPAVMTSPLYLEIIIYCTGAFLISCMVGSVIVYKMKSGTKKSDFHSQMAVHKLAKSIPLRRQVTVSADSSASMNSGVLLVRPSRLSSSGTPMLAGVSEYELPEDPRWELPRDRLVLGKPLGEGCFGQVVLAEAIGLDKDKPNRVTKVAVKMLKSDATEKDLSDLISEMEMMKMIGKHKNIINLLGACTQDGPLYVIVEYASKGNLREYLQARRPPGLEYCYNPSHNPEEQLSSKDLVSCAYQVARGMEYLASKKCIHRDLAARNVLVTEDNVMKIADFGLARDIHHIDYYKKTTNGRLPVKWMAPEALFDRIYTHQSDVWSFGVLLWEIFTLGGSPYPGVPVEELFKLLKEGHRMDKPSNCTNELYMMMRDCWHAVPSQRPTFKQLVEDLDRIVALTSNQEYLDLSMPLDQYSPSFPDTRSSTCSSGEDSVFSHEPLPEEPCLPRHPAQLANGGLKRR
Chain of FGFR3 kinase (P22607 23-806): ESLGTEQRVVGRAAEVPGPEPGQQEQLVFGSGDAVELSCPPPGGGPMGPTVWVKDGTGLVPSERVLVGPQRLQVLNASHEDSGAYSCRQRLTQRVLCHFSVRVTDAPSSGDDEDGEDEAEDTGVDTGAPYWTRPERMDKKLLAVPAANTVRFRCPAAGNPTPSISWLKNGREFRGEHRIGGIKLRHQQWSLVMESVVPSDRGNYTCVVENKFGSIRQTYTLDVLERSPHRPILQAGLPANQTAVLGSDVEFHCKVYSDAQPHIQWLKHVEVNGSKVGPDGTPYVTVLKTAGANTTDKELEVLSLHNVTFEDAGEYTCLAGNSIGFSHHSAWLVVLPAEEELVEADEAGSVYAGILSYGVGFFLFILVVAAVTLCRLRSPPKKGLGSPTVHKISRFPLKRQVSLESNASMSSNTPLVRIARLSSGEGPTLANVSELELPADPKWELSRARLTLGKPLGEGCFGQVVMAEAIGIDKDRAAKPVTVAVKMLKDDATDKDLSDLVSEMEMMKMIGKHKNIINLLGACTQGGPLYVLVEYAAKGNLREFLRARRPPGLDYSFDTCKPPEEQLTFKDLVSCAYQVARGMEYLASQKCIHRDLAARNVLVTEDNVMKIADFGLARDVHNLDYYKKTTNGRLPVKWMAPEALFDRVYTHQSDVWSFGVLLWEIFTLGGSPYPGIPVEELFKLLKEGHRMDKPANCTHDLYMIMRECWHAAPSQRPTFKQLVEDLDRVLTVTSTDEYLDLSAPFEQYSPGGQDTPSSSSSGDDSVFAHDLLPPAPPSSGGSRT

SMILES	IC50 [1] [nM]	IC50 [2] [nM]	IC50 [3] [nM]	IC50 [4] [nM]	IC50 [5] [nM]	IC50 [6] [nM]
CNC(=O)c1cc(CCc2cnc(Nc3cnn(C4CCC4)c3)nc2)c(F)c(OC)c1 [Compound 10]	25	8	29	5	22	18
CNC(=O)c1cc(CCc2cnc(Nc3ccc(N4CCOCC4)cc3)nc2)c(F)c(OC)c1 [Compound 11]	18	7	34	9	28	40
CCN(CC)CCCn1cc(Nc2ncc(CCc3cc(C(=O)NC)cc(OC)c3F)cn2)cn1 [Compound 13]	29	7	59	10	21	498
CNC(=O)c1cc(CCc2cnc(Nc3ccc(N4C[C@@H](C)N[C@@H](C)C4)cc3)nc2)c(F)c(OC)c1 [Compound 21, 3-(2-(2-((4-((3R,5S)-3,5-dimethylpiperazin-1-yl)phenyl)amino)pyrimidin-5-yl)ethyl)-4-fluoro-5-methoxy-N-methylbenzamide]	9	14	52	6	16	40
CONC(=O)c1cc(CCc2cnc(Nc3ccccc3)nc2)cc(OC)c1 [Compound 22]	9	20	84	5	26	28
CNC(=O)c1cc(CCc2cnc(Nc3cnn(C)c3)nc2)c(F)c(OC)c1 [Compound 25]	15	30	218	8	23	39
CNC(=O)c1cc(CCc2cnc(Nc3ccc(C)nc3)nc2)c(F)c(OC)c1 [Compound 26]	20	27	93	12	29	48
CCn1cc(Nc2ncc(CCc3cc(OC)cc(C(=O)NC)c3F)cn2)cn1 [Compound 27]	256	21	402	42	293	340
CNC(=O)c1cc(CCc2cnc(Nc3ccc(OC)nc3)nc2)c(F)c(OC)c1 [Compound 30]	29	40	241	10	68	55
CNC(=O)c1cc(CCc2cnc(Nc3ccc4c(c3)OCO4)nc2)c(F)c(OC)c1 [Compound 31]	42	287	491	23	236	178
CNC(=O)c1cc(CCc2cnc(Nc3cnn(C[C@H](C)O)c3)nc2)c(F)c(OC)c1 [Compound 32]	18	5	104	6	30	57
CNC(=O)c1cc(CCc2cnc(Nc3cnn(C[C@@H](C)O)c3)nc2)c(F)c(OC)c1 [Compound 33]	22	17	135	7	19	47
CNC(=O)c1cc(CCc2cnc(Nc3ccc4nc(C)oc4c3)nc2)c(F)c(OC)c1 [Compound 34]	33	46	308	13	58	132
CNC(=O)c1cc(CCc2cnc(Nc3ccc(-n4cccn4)cc3)nc2)c(F)c(OC)c1 [Compound 35]	30	83	455	9	157	189
CNC(=O)c1cc(CCc2cnc(Nc3cnn(CC(F)(F)F)c3)nc2)c(F)c(OC)c1 [Compound 36]	21	31	160	616	29	52
CNC(=O)c1cc(CCc2cnc(Nc3cccc(N4CCOCC4)c3)nc2)c(F)c(OC)c1 [Compound 38]	8	20	86	3	30	28
CCN1CCN(c2ccc(Nc3ncc(CCc4cc(C(=O)NC)cc(OC)c4C)cn3)cc2)CC1 [Compound 39]	43	43	342	41	71	49

SMILES	IC50 [1] [nM]	IC50 [2] [nM]	IC50 [3] [nM]	IC50 [4] [nM]	IC50 [5] [nM]	IC50 [6] [nM]
CCN1CCN(c2ccc(Nc3ncc(CCc4cc(C(=O)NC)cc(OC)c4F)cn3)cc2)CC1 [Compound 44]	5	9	51	4	15	9
CNC(=O)c1cc(CCc2cnc(Nc3cnn(CCN4CCN(C)CC4)c3)nc2)c(F)c(OC)c1 [Compound 45]	14	10	94	7	34	388
CONC(=O)c1cc(CCc2cnc(Nc3ccc(N4C[C@@H](C)N[C@@H](C)C4)c(C)c3)nc2)cc(OC)c1 [Compound 49]	6	8	62	5	18	75
CCONC(=O)c1cc(CCc2cnc(Nc3ccc(N4CCN(CC)CC4)cc3)nc2)cc(OC)c1 [Compound 50]	14	29	352	15	132	45
CCN1CCN(c2ccc(Nc3ncc(CCc4cc(C(=O)NC)cc(OC)c4F)cn3)cc2)C[C@H]1C [Compound 53]	5	8	49	4	19	14
CONC(=O)c1cc(CCc2cnc(Nc3ccc(N4C[C@@H](C)N[C@@H](C)C4)c(F)c3)nc2)cc(OC)c1 [Compound 54]	6	6	31	3	10	18
CCN1CCN(c2ccc(Nc3ncc(CCc4cc(C(=O)NOC)cc(OC)c4F)cn3)cc2)CC1 [Compound 55]	2	2	16	3	4	3
CNC(=O)c1cc(CCc2cnc(Nc3ccnc(C)c3)nc2)c(F)c(OC)c1 [Compound 60, 4-fluoro-3-methoxy-N-methyl-5-(2-(2-((2-methylpyridin-4-yl)amino)pyrimidin-5-yl)ethyl)benzamide]	16	23	137	7	46	51
CNC(=O)c1cc(CCc2cnc(Nc3ccnc(OC)c3)nc2)c(F)c(OC)c1 [Compound 62]	20	33	152	9	49	46
CNC(=O)c1cc(CCc2cnc(Nc3cccnc3OC)nc2)c(F)c(OC)c1 [Compound 63]	195	243	895	27	419	427
CONC(=O)c1cc(CCc2cnc(Nc3ccc4nccn4c3)nc2)cc(OC)c1 [Compound 65]	48	112	296	28	55	203
CNC(=O)c1cc(CCc2cnc(Nc3ccn4ccnc4c3)nc2)c(F)c(OC)c1 [Compound 66]	18	25	201	7	55	194
CNC(=O)c1cc(CCc2cnc(Nc3ccc4nncn4c3)nc2)c(F)c(OC)c1 [Compound 67]	37	44	263	27	71	89
CNC(=O)c1cc(CCc2cnc(Nc3ccc4nnc(C)n4c3)nc2)c(F)c(OC)c1 [Compound 69]	42	42	337	20	85	268
CNC(=O)c1cc(CCc2cnc(Nc3nc(C4CC4)cs3)nc2)c(Cl)c(OC)c1 [Compound 71]	126	591	101	53	708	398
CNC(=O)c1cc(CCc2cnc(Nc3ccc4nnc(COC)n4c3)nc2)c(F)c(OC)c1 [Compound 72]	58	38	554	24	94	195
